Test results reported in publication PMC7175277, “Hydroxylamine Analogue of Agmatine: Magic Bullet for Arginine Decarboxylase” (Biomolecules, 2020).

What was measured:
[1] = tested on: DU145 prostate cancer cells; experiment: Intracellular polyamine pools of DU145 cells; type: cell-based; conditions: 3 days
Protocol: (§1) DU145 prostate cancer cells were cultured in high-glucose Dulbecco’s Modified Eagle’s Medium supplemented with 10% heat-inactivated fetal bovine serum, 2 mM L-glutamine and 50 μg/mL gentamycin (all from Sigma-Aldrich). The cells were plated on 6-well plates and allowed to attach overnight. […] The cells were harvested, and the pellet was mixed with 150 μL of 5% sulphosalicylic acid containing 5 μM diaminoheptane (internal standard). Polyamine analysis was carried out as described previously.

mouse kidney ODC = molecular target: T1, mouse kidney ODC (Mus musculus, UniProt P00860); experiment: Assay of mouse kidney ODC activity; type: biochemical; conditions: 0.4 mM L-Orn; 0.4 mM PLP
T1 construct: from tissue; host or cells: C57Bl/6J male mouse kidney, 12,000 g supernatant of the homogenate
T1 sequence (P00860 1-461): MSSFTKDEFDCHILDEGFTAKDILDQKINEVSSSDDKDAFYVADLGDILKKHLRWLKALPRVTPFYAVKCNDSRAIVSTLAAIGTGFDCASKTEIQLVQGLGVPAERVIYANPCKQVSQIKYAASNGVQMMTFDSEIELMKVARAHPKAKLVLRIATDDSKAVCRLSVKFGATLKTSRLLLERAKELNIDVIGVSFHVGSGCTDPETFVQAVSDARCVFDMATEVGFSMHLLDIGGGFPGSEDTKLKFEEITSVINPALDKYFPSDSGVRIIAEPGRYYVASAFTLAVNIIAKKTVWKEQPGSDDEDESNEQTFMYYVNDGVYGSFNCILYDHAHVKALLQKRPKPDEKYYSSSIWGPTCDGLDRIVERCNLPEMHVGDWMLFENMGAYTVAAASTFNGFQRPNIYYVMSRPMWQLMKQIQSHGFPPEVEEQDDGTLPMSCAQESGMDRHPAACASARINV
Protocol: C57Bl/6J male mouse kidney was homogenized with TissueLyzer (Qiagen) to 2 volumes of buffer containing 50 mM Tris-HCl pH 7.4, 1 mM DTT, 1 mM EDTA, 0.1% Triton X-100 and 1× Complete EDTA-free protease inhibitor cocktail (Roche) and centrifuged at 12,000 g for 30 min at +4 °C. Aliquots of the supernatant were mixed with 1–5000 μM of AO-Agm and the ODC assay was carried out as previously described. The reaction mixture contained 0.4 mM PLP and 0.4 mM L-Orn.

[2] = tested on: DU145 prostate cancer cells; experiment: Growth of DU145 cells; type: cell-based; conditions: for Growth: 3 days
Protocol: as §1

E. coli ADC = molecular target: T2, E. coli ADC (Escherichia coli, UniProt P21170); experiment: Ultrafiltration of ADC~PLP=AO-Agm complex, then ADC activity assay; type: biochemical; conditions: 15 μM AO-Agm
T2 construct: The kinetic parameters determined for the partially purified biosynthetic ADC from E. coli; endogenous in cells; host or cells: E. coli DH5α (39-53% ammonium sulphate fraction of the lysate, desalted)
T2 sequence (P21170 1-658): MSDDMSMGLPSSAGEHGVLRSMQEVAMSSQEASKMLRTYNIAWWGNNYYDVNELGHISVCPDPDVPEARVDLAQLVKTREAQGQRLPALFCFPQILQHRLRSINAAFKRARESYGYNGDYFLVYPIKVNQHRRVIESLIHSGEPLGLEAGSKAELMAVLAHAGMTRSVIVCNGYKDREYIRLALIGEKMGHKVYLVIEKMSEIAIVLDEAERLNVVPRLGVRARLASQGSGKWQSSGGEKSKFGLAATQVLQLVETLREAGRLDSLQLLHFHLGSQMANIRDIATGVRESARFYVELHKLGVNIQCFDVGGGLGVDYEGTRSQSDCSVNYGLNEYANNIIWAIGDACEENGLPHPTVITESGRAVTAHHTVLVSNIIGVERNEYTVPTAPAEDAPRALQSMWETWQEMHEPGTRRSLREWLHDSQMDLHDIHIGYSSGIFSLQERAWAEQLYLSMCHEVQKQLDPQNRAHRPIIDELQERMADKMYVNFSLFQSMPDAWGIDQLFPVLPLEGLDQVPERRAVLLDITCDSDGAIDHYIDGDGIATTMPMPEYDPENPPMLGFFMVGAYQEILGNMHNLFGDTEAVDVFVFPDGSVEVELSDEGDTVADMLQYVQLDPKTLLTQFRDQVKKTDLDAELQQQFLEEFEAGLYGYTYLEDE
Protocol: Partially purified enzyme preparation was preincubated for 15 min with 15 μM AO-Agm (which produced 100% inhibition) or H2O (control) and 0.1 mM PLP in the assay buffer. The samples were placed on ice, and half of the reactions were filtered through a 3K cutoff ultrafiltration device (Millipore) and washed twice with 600 μL of buffer containing 50 mM Tris-HCl pH 7.4, 1 mM DTT and 0.1 mM PLP. ADC activity was then assayed.

[3] = AO-Agm 10 μM in the presence of SC (1 mM)
[4] = AO-Agm 100 μM in the presence of SC (1 mM)
[5] = AO-Agm 1 mM in the presence of SC (1 mM)

N=C(N)NCCCON [AO-Agm, 1-aminooxy-3-guanidinopropane]
Put [1, 3]: 922 ± 60 pmol/mg Protein | Spd [1, 3]: 6405 ± 61 pmol/mg Protein | Spm [1, 3]: 3903 ± 72 pmol/mg Protein | Put ([1]; AO-Agm 10 μM, no SC): 1515 ± 98 pmol/mg Protein | Spd ([1]; AO-Agm 10 μM, no SC): 7237 ± 73 pmol/mg Protein | Spm ([1]; AO-Agm 10 μM, no SC): 3782 ± 55 pmol/mg Protein | Put [1, 4]: 954 ± 115 pmol/mg Protein | Spd [1, 4]: 6280 ± 122 pmol/mg Protein | Spm [1, 4]: 3621 ± 87 pmol/mg Protein | Put ([1]; AO-Agm 100 μM, no SC): 1447 ± 43 pmol/mg Protein | Spd ([1]; AO-Agm 100 μM, no SC): 7047 ± 155 pmol/mg Protein | Spm ([1]; AO-Agm 100 μM, no SC): 3682 ± 152 pmol/mg Protein | Spd [1, 5]: 1074 ± 159 pmol/mg Protein | Spm [1, 5]: 2389 ± 105 pmol/mg Protein | Put ([1]; AO-Agm 1 mM, no SC): 1074 ± 30 pmol/mg Protein | Spd ([1]; AO-Agm 1 mM, no SC): 3609 ± 124 pmol/mg Protein | Spm ([1]; AO-Agm 1 mM, no SC): 3795 ± 98 pmol/mg Protein | IC50 (mouse kidney ODC): 5.3 ± 0.7 µM | Growth [2, 3]: 0.94 ± 0.03 Fold | Growth ([2]; AO-Agm 10 μM, no SC): 0.96 ± 0.02 Fold | Proliferation and intracellular polyamine pools of DU145 cells ([2]; AO-Agm 0.01 mM and 0.1 mM): without effect | Growth [2, 4]: 0.97 ± 0.02 Fold | Growth ([2]; AO-Agm 100 μM, no SC): 0.96 ± 0.04 Fold | Proliferation of DU145 cells ([2]; AO-Agm 1 mM): moderately inhibited | Growth [2, 5]: 0.45 ± 0.01 Fold | Growth ([2]; AO-Agm 1 mM, no SC): 0.72 ± 0.04 Fold | inhibition at 15 µM (E. coli ADC; 15 min preincubation, 0.1 mM PLP): 100% | ADC activity after ultrafiltration and washing of the inhibitory complex (E. coli ADC; buffer containing 0.1 mM PLP): fully restored ADC activity
